Patent US20170094972A1, “Compounds and Compositions Having Knock-Down Activity Against Insect Pests” (priority 2015, published 2017)

Assays:
Format in all cases: in vivo
[1] = test system: Aedes aegypti; assay: 12 well plate knockdown test; settings: 1 h, read-out: Aedes aegypti 1 hour % KD; for pest or weed control at 0.2 ppm: Rate 0.2 PPM; for pest or weed control at 2 ppm: Rate 2 PPM; for pest or weed control at 20 ppm: Rate 20 PPM; for pest or weed control at 200 ppm: Rate 200 PPM
Procedure: (§1) The individual wells of a twelve (12) well tissue culture plates were treated with 100 μl of an ethanol solution containing a test compound at a defined concentration. Once the deposits were dry, five non-blood fed adult female Aedes aegypti or Anopheles stephensi (between two to five day old) were added to each well, and sustained with a 10% sucrose solution in a cotton wool plug. Assessment of the knockdown after 1 hour was carried out. Where multiple replicates of a treatment have been undertaken, the mean of those replicates is reported.

[2] = test system: Anopheles stephensi; assay: 12 well plate knockdown test; settings: 1 h, read-out: Anopheles stephensi 1 hour % KD; for pest or weed control at 0.2 ppm: Rate 0.2 PPM; for pest or weed control at 2 ppm: Rate 2 PPM; for pest or weed control at 20 ppm: Rate 20 PPM; for pest or weed control at 200 ppm: Rate 200 PPM
Procedure: as §1

[3] = test system: Anopheles stephensi; assay: 6 well plate test, knockdown after 1 hour and mortality after 24 and 48 hours; parameters: KD: unit not given here; settings: for KD: after 1 hour; for knockdown after 1 hour, Alone: Table B10
Procedure: The individual wells of six (6) well tissue culture plates were treated with […] of an ethanol solution containing a test compound at a defined concentration. Once the deposits were dry, ten non-blood fed adult female Anopheles stephensi (between two to five day old) were added to each well, and sustained with a 10% sucrose solution in a cotton wool plug. Assessment of the knockdown after 1 hour (Tables B1-B10), and mortality after 24 and 48 hours (Tables B1-B4) was carried out.
In case of multiple tests, the mean value is reported.

CC(C)CC(=O)ON(C)C(=O)c1cnccc1C(F)(F)F [I.10]
pest or weed control at 0.2 ppm [1]: 100%
pest or weed control at 2 ppm [1]: 100%
pest or weed control at 20 ppm [1]: 100%
pest or weed control at 200 ppm [1]: 100%
pest or weed control at 0.2 ppm [2]: 40%
pest or weed control at 2 ppm [2]: 60%
pest or weed control at 20 ppm [2]: 100%
pest or weed control at 200 ppm [2]: 100%

CC(C#N)NC(=O)c1cnccc1C(F)(F)F (centres unmarked) [I.11]
pest or weed control at 0.2 ppm [1]: 100%
pest or weed control at 2 ppm [1]: 100%
pest or weed control at 20 ppm [1]: 100%
pest or weed control at 200 ppm [1]: 100%

CC(C)NOC(=O)c1cnccc1C(F)(F)F [I.12]
pest or weed control at 0.2 ppm [1]: 100%
pest or weed control at 2 ppm [1]: 100%
pest or weed control at 20 ppm [1]: 100%
pest or weed control at 200 ppm [1]: 100%
pest or weed control at 0.2 ppm [2]: 0%
pest or weed control at 2 ppm [2]: 80%
pest or weed control at 20 ppm [2]: 100%
pest or weed control at 200 ppm [2]: 100%

O=C(NC(=O)c1cnccc1C(F)(F)F)c1cccs1 [I.13]
pest or weed control at 0.2 ppm [1]: 0%
pest or weed control at 2 ppm [1]: 100%
pest or weed control at 20 ppm [1]: 100%
pest or weed control at 200 ppm [1]: 100%
pest or weed control at 0.2 ppm [2]: 0%
pest or weed control at 2 ppm [2]: 60%
pest or weed control at 20 ppm [2]: 100%
pest or weed control at 200 ppm [2]: 100%

N/C(=N/C(=O)c1cnccc1C(F)(F)F)c1ncccn1 [I.14]
pest or weed control at 0.2 ppm [1]: 0%
pest or weed control at 2 ppm [1]: 100%
pest or weed control at 20 ppm [1]: 100%
pest or weed control at 200 ppm [1]: 100%
pest or weed control at 0.2 ppm [2]: 40%
pest or weed control at 2 ppm [2]: 40%
pest or weed control at 20 ppm [2]: 100%
pest or weed control at 200 ppm [2]: 100%

CCN(Cc1ccccc1)C(=O)c1cnccc1C(F)(F)F [I.15]
pest or weed control at 0.2 ppm [1]: 100%
pest or weed control at 2 ppm [1]: 100%
pest or weed control at 20 ppm [1]: 100%
pest or weed control at 200 ppm [1]: 100%
pest or weed control at 0.2 ppm [2]: 0%
pest or weed control at 2 ppm [2]: 0%
pest or weed control at 20 ppm [2]: 0%
pest or weed control at 200 ppm [2]: 0%

CCCN1CN=C(c2cnccc2C(F)(F)F)OC1=O [I.16]
pest or weed control at 0.2 ppm [1]: 0%
pest or weed control at 2 ppm [1]: 60%
pest or weed control at 20 ppm [1]: 60%
pest or weed control at 200 ppm [1]: 100%
pest or weed control at 0.2 ppm [2]: 0%
pest or weed control at 2 ppm [2]: 0%
pest or weed control at 20 ppm [2]: 0%
pest or weed control at 200 ppm [2]: 0%

C=CCONC(=O)c1cnccc1C(F)(F)F [I.17]
pest or weed control at 0.2 ppm [1]: 0%
pest or weed control at 2 ppm [1]: 0%
pest or weed control at 20 ppm [1]: 0%
pest or weed control at 200 ppm [1]: 0%
pest or weed control at 0.2 ppm [2]: 0%
pest or weed control at 2 ppm [2]: 0%
pest or weed control at 20 ppm [2]: 20%
pest or weed control at 200 ppm [2]: 100%

CCOCn1c(-c2ccc(Cl)cc2)c(C#N)c(Br)c1C(F)(F)F [chlorfenapyr]
24 hr mort ([3]; Table B1, 0.0625 ppm alone): 0.0
48 hr mort ([3]; Table B1, 0.0625 ppm alone): 0.0
KD ([3]; Table B1, 0.0625 ppm alone): 0.0
24 hr mort ([3]; Table B1, 0.125 ppm alone): 0.0
48 hr mort ([3]; Table B1, 0.125 ppm alone): 0.0
KD ([3]; Table B1, 0.125 ppm alone): 0.0
24 hr mort ([3]; Table B1, 0.25 ppm alone): 0.0
48 hr mort ([3]; Table B1, 0.25 ppm alone): 3.3
KD ([3]; Table B1, 0.25 ppm alone): 0.0
24 hr mort ([3]; Table B1, 0.5 ppm alone): 0.0
48 hr mort ([3]; Table B1, 0.5 ppm alone): 16.7
KD ([3]; Table B1, 0.5 ppm alone): 0.0
24 hr mort ([3]; Table B1, 1 ppm alone): 6.7
48 hr mort ([3]; Table B1, 1 ppm alone): 50.0
KD ([3]; Table B1, 1 ppm alone): 0.0
24 hr mort ([3]; Table B1, 2 ppm alone): 40.0
48 hr mort ([3]; Table B1, 2 ppm alone): 90.0
KD ([3]; Table B1, 2 ppm alone): 0.0
24 hr mort ([3]; Table B2, 0.0625 ppm alone): 0.0
48 hr mort ([3]; Table B2, 0.0625 ppm alone): 0.0
KD ([3]; Table B2, 0.0625 ppm alone): 0.0
24 hr mort ([3]; Table B2, 0.125 ppm alone): 0.0
48 hr mort ([3]; Table B2, 0.125 ppm alone): 0.0
KD ([3]; Table B2, 0.125 ppm alone): 0.0
24 hr mort ([3]; Table B2, 0.25 ppm alone): 0.0
48 hr mort ([3]; Table B2, 0.25 ppm alone): 0.0
KD ([3]; Table B2, 0.25 ppm alone): 0.0
24 hr mort ([3]; Table B2, 0.5 ppm alone): 0.0
48 hr mort ([3]; Table B2, 0.5 ppm alone): 0.0
KD ([3]; Table B2, 0.5 ppm alone): 0.0
24 hr mort ([3]; Table B2, 1 ppm alone): 20.0
48 hr mort ([3]; Table B2, 1 ppm alone): 40.0
KD ([3]; Table B2, 1 ppm alone): 0.0
24 hr mort ([3]; Table B2, 2 ppm alone): 50.0
48 hr mort ([3]; Table B2, 2 ppm alone): 100.0
KD ([3]; Table B2, 2 ppm alone): 0.0

CCN(CC)c1nc(C)cc(OP(=S)(OC)OC)n1 [pirimiphos-methyl]
24 hr mort ([3]; Table B3, 0.03125 ppm alone): 0.0
48 hr mort ([3]; Table B3, 0.03125 ppm alone): 0.0
KD ([3]; Table B3, 0.03125 ppm alone): 0.0
24 hr mort ([3]; Table B3, 0.0625 ppm alone): 0.0
48 hr mort ([3]; Table B3, 0.0625 ppm alone): 0.0
KD ([3]; Table B3, 0.0625 ppm alone): 0.0
24 hr mort ([3]; Table B3, 0.125 ppm alone): 0.0
48 hr mort ([3]; Table B3, 0.125 ppm alone): 0.0
KD ([3]; Table B3, 0.125 ppm alone): 0.0
24 hr mort ([3]; Table B3, 0.25 ppm alone): 50.0
48 hr mort ([3]; Table B3, 0.25 ppm alone): 50.0
KD ([3]; Table B3, 0.25 ppm alone): 0.0
24 hr mort ([3]; Table B3, 0.5 ppm alone): 100.0
48 hr mort ([3]; Table B3, 0.5 ppm alone): 100.0
KD ([3]; Table B3, 0.5 ppm alone): 0.0
24 hr mort ([3]; Table B3, 1 ppm alone): 100.0
48 hr mort ([3]; Table B3, 1 ppm alone): 100.0
KD ([3]; Table B3, 1 ppm alone): 10.0
knockdown after 1 hour, Alone ([3]; 0.0625 ppm): 0.0
knockdown after 1 hour, Alone ([3]; 0.125 ppm): 0.0
knockdown after 1 hour, Alone ([3]; 0.25 ppm): 50.0
knockdown after 1 hour, Alone ([3]; 0.5 ppm): 100.0
knockdown after 1 hour, Alone ([3]; 1 ppm): 100.0
